In the supplement of paper PMC10307832:

What was measured:
Experiment in all cases: relative viability (nuclei count vs DMSO), 5 days (fraction); higher = more cells survive
Afatinib + Tozasertib = compound: CN(C)C/C=C/C(=O)Nc1cc2c(Nc3ccc(F)c(Cl)c3)ncnc2cc1O[C@H]1CCOC1 [Afatinib] + Cc1cc(Nc2cc(N3CCN(C)CC3)nc(Sc3ccc(NC(=O)C4CC4)cc3)n2)n[nH]1 [Tozasertib] (partner 0.1 µM)
In short: (§1)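 One day after seeding in 1536-well plates, lung cancer cell lines were dosed by pin tool. Dosing was either single-drug or a fixed anchor-drug dose plus five library-drug doses (not always all listed) in √10 steps. After 5 days, nuclei were stained in one fix-and-stain step and counted on 4× images, and relative viability is the nuclei count of treated wells over that of vehicle wells, given as the median of duplicate plates.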

Afatinib + Dasatinib = compound: CN(C)C/C=C/C(=O)Nc1cc2c(Nc3ccc(F)c(Cl)c3)ncnc2cc1O[C@H]1CCOC1 [Afatinib] + Cc1nc(Nc2ncc(C(=O)Nc3c(C)cccc3Cl)s2)cc(N2CCN(CCO)CC2)n1 [Dasatinib] (partner 0.075 µM)
In short: as §1

Afatinib + Alpelisib = compound: CN(C)C/C=C/C(=O)Nc1cc2c(Nc3ccc(F)c(Cl)c3)ncnc2cc1O[C@H]1CCOC1 [Afatinib] + Cc1nc(NC(=O)N2CCC[C@H]2C(N)=O)sc1-c1ccnc(C(C)(C)C(F)(F)F)c1 [Alpelisib] (partner 2 µM)
In short: as §1

Afatinib + Luminespib = compound: CN(C)C/C=C/C(=O)Nc1cc2c(Nc3ccc(F)c(Cl)c3)ncnc2cc1O[C@H]1CCOC1 [Afatinib] + CCNC(=O)c1noc(-c2cc(C(C)C)c(O)cc2O)c1-c1ccc(CN2CCOCC2)cc1 [Luminespib] (partner 0.01 µM)
In short: as §1

Cell Line	relative viability (Afatinib + Tozasertib; first compound 0.005 µM)	relative viability (Afatinib + Tozasertib; first compound 0.01581 µM)	relative viability (Afatinib + Tozasertib; first compound 0.05 µM)	relative viability (Afatinib + Tozasertib; first compound 0.1581 µM)	relative viability (Afatinib + Tozasertib; first compound 0.5 µM)	relative viability (Afatinib + Dasatinib; first compound 0.005 µM)	relative viability (Afatinib + Dasatinib; first compound 0.01581 µM)	relative viability (Afatinib + Dasatinib; first compound 0.05 µM)	relative viability (Afatinib + Dasatinib; first compound 0.1581 µM)	relative viability (Afatinib + Dasatinib; first compound 0.5 µM)	relative viability (Afatinib + Alpelisib; first compound 0.005 µM)	relative viability (Afatinib + Alpelisib; first compound 0.01581 µM)	relative viability (Afatinib + Alpelisib; first compound 0.05 µM)	relative viability (Afatinib + Alpelisib; first compound 0.1581 µM)	relative viability (Afatinib + Alpelisib; first compound 0.5 µM)	relative viability (Afatinib + Luminespib; first compound 0.005 µM)	relative viability (Afatinib + Luminespib; first compound 0.01581 µM)	relative viability (Afatinib + Luminespib; first compound 0.05 µM)	relative viability (Afatinib + Luminespib; first compound 0.1581 µM)	relative viability (Afatinib + Luminespib; first compound 0.5 µM)
NCI-H358	0.0992	0.111	0.0922	0.0887	0.076	0.125	0.111	0.113	0.156	0.128	0.668	0.488	0.324	0.255	0.37	0.27	0.0409	0.189	0.101	0.125
NCI-H441	0.757	0.788	0.67	0.532	0.494	0.574	0.488	0.573	0.435	0.402	0.831	0.763	0.751	0.581	0.626	0.442	0.431	0.325	0.249	0.222
NCI-H460	0.487	0.511	0.407	0.269	0.395	0.531	0.527	0.469	0.467	0.535	0.52	0.509	0.484	0.543	0.349	0.0369	0.0258	0.0533	0.0327	0.032
NCI-H520	0.435	0.355	0.462	0.342	0.422	0.199	0.178	0.19	0.225	0.14	1.07	0.903	1.02	1.01	0.872	0.21	0.264	0.223	0.215	0.234
NCI-H596	0.848	0.881	0.92	0.777	0.772	0.445	0.456	0.643	0.538	0.602	0.542	0.512	0.528	0.385	0.538	1.01	1	0.894	0.778	0.984
NCI-H647	0.251	0.263	0.417	0.211	0.276	0.24	0.141	0.201	0.192	0.172	1.22	1.13	1.17	1.03	1.05	0.169	0.26	0.12	0.183	0.158
NCI-H650	0.846	0.735	0.782	0.721	0.683	0.559	0.428	0.481	0.599	0.411	1.23	1.11	1.14	1.25	1.06	0.841	0.816	0.791	0.814	0.788
NCI-H661	0.34	0.367	0.367	0.361	0.377	0.858	0.527	0.375	0.341	0.332	0.666	0.389	0.475	0.398	0.349	0.994	0.895	0.867	0.674	0.629
NCI-H727	0.597	0.614	0.543	0.514	0.449	0.366	–	0.204	0.282	0.249	0.579	0.462	0.503	0.417	0.561	0.404	–	0.416	0.282	0.345
NCI-H838	0.29	0.264	0.282	0.222	0.276	0.33	0.319	0.331	0.203	0.269	0.93	1.1	1.06	0.905	1.1	0.346	0.291	0.272	0.217	0.248
NCI-H1355	0.577	0.517	0.522	0.501	0.464	0.665	0.742	0.68	0.642	0.643	0.782	0.89	0.918	0.656	0.645	0.703	0.685	0.642	0.647	0.582
NCI-H1395	0.784	0.759	0.712	0.709	0.667	0.453	0.408	0.415	0.404	0.376	1.11	1.17	1.08	1.41	1.29	0.733	0.781	0.664	0.7	0.665
NCI-H1437	0.416	0.43	0.41	0.397	0.412	0.464	0.408	0.403	0.372	0.352	0.99	1.06	1.04	0.924	1.01	1.2	1.14	1.23	1.07	1.12
NCI-H1651	0.718	0.748	0.727	0.591	0.609	0.483	0.426	0.407	0.386	0.381	1.02	0.881	0.906	0.953	0.849	0.923	0.817	1.03	0.835	0.726
NCI-H1666	0.673	0.621	0.596	0.519	0.551	0.784	0.772	0.672	0.672	0.776	0.968	0.605	0.505	–	0.497	0.973	0.931	0.796	0.807	0.808
NCI-H1734	0.253	0.255	0.269	0.289	0.26	0.482	0.386	0.497	0.491	0.444	0.675	0.747	0.735	0.697	0.671	0.209	0.225	0.196	0.197	0.19

Cell Line	relative viability (Afatinib + Tozasertib; first compound 0.005 µM)	relative viability (Afatinib + Tozasertib; first compound 0.01581 µM)	relative viability (Afatinib + Tozasertib; first compound 0.05 µM)	relative viability (Afatinib + Tozasertib; first compound 0.1581 µM)	relative viability (Afatinib + Tozasertib; first compound 0.5 µM)	relative viability (Afatinib + Dasatinib; first compound 0.005 µM)	relative viability (Afatinib + Dasatinib; first compound 0.01581 µM)	relative viability (Afatinib + Dasatinib; first compound 0.05 µM)	relative viability (Afatinib + Dasatinib; first compound 0.1581 µM)	relative viability (Afatinib + Dasatinib; first compound 0.5 µM)	relative viability (Afatinib + Alpelisib; first compound 0.005 µM)	relative viability (Afatinib + Alpelisib; first compound 0.01581 µM)	relative viability (Afatinib + Alpelisib; first compound 0.05 µM)	relative viability (Afatinib + Alpelisib; first compound 0.1581 µM)	relative viability (Afatinib + Alpelisib; first compound 0.5 µM)	relative viability (Afatinib + Luminespib; first compound 0.005 µM)	relative viability (Afatinib + Luminespib; first compound 0.01581 µM)	relative viability (Afatinib + Luminespib; first compound 0.05 µM)	relative viability (Afatinib + Luminespib; first compound 0.1581 µM)	relative viability (Afatinib + Luminespib; first compound 0.5 µM)
NCI-H1755	0.522	0.499	0.59	0.554	0.566	0.483	0.424	0.435	0.393	0.399	0.492	0.89	0.882	0.888	0.929	0.287	0.367	0.587	0.408	0.49
NCI-H1793	0.315	0.377	0.252	0.147	0.242	0.33	0.341	0.343	0.361	0.272	0.57	0.658	0.555	0.544	0.527	0.19	0.215	0.238	0.168	0.173
NCI-H1915	0.522	0.46	0.414	0.427	0.419	0.361	0.347	0.313	0.301	0.304	1.09	1.09	1.06	1.02	0.972	0.807	0.848	0.772	0.743	0.596
NCI-H1944	0.234	0.247	0.216	0.195	0.208	0.211	0.205	0.21	0.185	0.186	0.677	0.763	0.693	0.465	0.518	0.609	0.629	0.552	0.498	0.491
NCI-H1975	0.7	0.702	0.641	0.268	0.218	0.455	0.386	0.306	0.15	0.11	0.628	0.511	0.43	0.197	0.206	0.199	0.18	0.199	0.122	0.169
NCI-H1993	0.556	0.582	0.601	0.617	0.549	0.459	0.561	0.585	0.729	0.576	0.608	0.771	0.721	0.765	0.705	0.752	0.557	0.58	0.549	0.571
NCI-H2009	0.856	0.785	0.789	0.713	0.732	0.306	0.295	0.341	0.259	0.285	1.23	1.15	1.22	1.17	1.14	1.08	1.04	1.13	1.02	1.08
NCI-H2023	0.422	0.377	0.366	0.169	0.248	0.61	0.498	0.492	0.445	0.546	0.608	0.544	0.446	0.408	0.434	0.85	0.711	0.756	0.594	0.71
NCI-H2085	0.795	0.754	0.721	0.619	0.619	0.238	0.263	0.22	0.199	0.212	0.944	0.873	0.812	0.659	0.803	0.405	0.396	0.409	0.32	0.296
NCI-H2087	0.232	0.25	0.267	0.229	0.202	0.992	0.804	0.825	0.852	0.715	1.23	1.18	1	1.28	1.02	0.178	0.163	0.21	0.167	0.161
NCI-H2126	0.852	0.813	0.668	0.571	0.632	0.573	0.532	0.439	0.394	0.401	0.726	0.722	0.653	0.504	0.444	0.958	0.861	0.796	0.681	0.718
NCI-H2170	0.651	0.574	0.355	0.221	0.203	0.352	0.281	0.157	0.131	0.155	0.571	0.421	0.314	0.207	0.233	0.831	0.671	0.449	0.163	0.231
NCI-H2228	0.271	0.259	0.217	0.191	0.205	0.619	0.56	0.55	0.41	0.634	0.74	0.78	0.688	–	0.589	0.141	0.127	0.136	0.132	0.143
NCI-H2347	0.509	0.593	0.596	0.484	0.603	0.34	0.318	0.453	0.269	0.288	1.11	0.979	1.1	1.1	0.889	0.295	0.352	0.555	0.404	0.316
NCI-H2405	0.779	0.741	0.741	0.646	0.824	0.243	0.201	0.207	0.219	0.196	0.703	0.804	0.875	0.708	0.913	0.578	0.695	0.648	0.388	0.441
NCI-H3122	0.452	0.504	0.394	0.327	0.459	0.95	0.778	0.675	0.739	0.553	0.81	0.685	0.716	0.738	0.705	0.103	0.0816	0.0898	0.0996	0.0859
